Results: patent US20100298141A1, “SUBSTITUTED PYRIDINE N-OXIDE HERBICIDES” (E. I. DU PONT DE NEMOURS AND COMPANY, priority 2007, published 2010)

Columns and labels:
woolly cupgrass = test: Test C pre-/postemergence test; assay type: in vivo, Eriochloa villosa
How it was run: (§1)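 Test chemicals were formulated with surfactant in a non-phytotoxic solvent and sprayed both on freshly planted seeds (preemergence) and on 1- to 4-leaf plants of 2–18 cm (postemergence). Flooded-paddy pots received compound directly into 3 cm of standing water, maintained for the test.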

[1] = test system: common (oilseed) sunflower; test: Test C pre-/postemergence test; assay type: in vivo, Helianthus annuus
How it was run: as §1

corn = test: Test C pre-/postemergence test; assay type: in vivo, Zea mays
How it was run: as §1

kochia = test: Test C pre-/postemergence test; assay type: in vivo, Kochia scoparia
How it was run: as §1

Italian ryegrass = test: Test C pre-/postemergence test; assay type: in vivo, Lolium multiflorum
How it was run: as §1

blackgrass = test: Test C pre-/postemergence test; assay type: in vivo, Alopecurus myosuroides
How it was run: as §1

barnyardgrass = test: Test A pre-/postemergence greenhouse test; assay type: in vivo, Echinochloa crus-galli; details: for Plant response rating, Barnyardgrass: 0 to 100 scale where 0 is no effect and 100 is complete control; for Barnyardgrass plant response rating: 0 to 100 scale
How it was run: (§2)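 Pots of loam–sand soil sown with the test species are sprayed preemergence on the soil surface; emerged seedlings (1–2 leaves, 2–10 cm) are sprayed postemergence at the same time. The vehicle is a non-phytotoxic solvent mixture with surfactant. Injury is scored visually after ~10 d in greenhouse.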

umbrella sedge = test: Test C flooded paddy test; assay type: in vivo, Cyperus difformis; details: Flood
How it was run: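 Greenhouse pots flooded to 3 cm above soil at time of treatment received compound via the water, which stayed at that level.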

yellow nutsedge = test: Test C pre-/postemergence test; assay type: in vivo, Cyperus esculentus
How it was run: as §1

pigweed = test: Test C pre-/postemergence test; assay type: in vivo, Amaranthus retroflexus
How it was run: as §1

soybean = test: Test C pre-/postemergence test; assay type: in vivo, Glycine max
How it was run: as §1

morningglory [2] = test: Test C pre-/postemergence test; assay type: in vivo, Ipomoea coccinea
How it was run: as §1

wheat = test: Test C pre-/postemergence test; assay type: in vivo, Triticum aestivum
How it was run: as §1

cocklebur = test: Test C pre-/postemergence test; assay type: in vivo, Xanthium strumarium
How it was run: as §1

morningglory [3] = test: Test A pre-/postemergence greenhouse test; assay type: in vivo, Ipomoea spp.; details: for Plant response rating, Morningglory: 0 to 100 scale where 0 is no effect and 100 is complete control; for Morningglory plant response rating: 0 to 100 scale
How it was run: as §2

green foxtail = test: Test C pre-/postemergence test; assay type: in vivo, Setaria viridis
How it was run: as §1

crabgrass = test: Test C pre-/postemergence test; assay type: in vivo, Digitaria sanguinalis
How it was run: as §1

[4] = 62 g ai/ha, Preemergence, scale 0 to 100
[5] = 125 g ai/ha, preemergence, scale 0 (no effect) to 100 (complete control)
[6] = Preemergence, 31 g ai/ha, scale 0 to 100 (0 no effect, 100 complete control)
[7] = preemergence, 250 g ai/ha, scale 0 (no effect) to 100 (complete control)
[8] = Postemergence, 500 g ai/ha, 0 is no effect, 100 is complete control
[9] = Preemergence, 125 g ai/ha, 0 no effect, 100 complete control

`Cn1nc(C(F)(F)F)c(C[S+]([O-])c2cccc[n+]2[O-])c1OCC(F)F` (centres unmarked) [Compound 75] was tested, and the “Cupgrass, Woolly plant response rating” value (woolly cupgrass; [4]) was 85, the “Cupgrass, Woolly plant response rating” value (woolly cupgrass; [5]) was 100 and the “Plant response rating, Cupgrass, Woolly” value (woolly cupgrass; [6]) was 85. The “Cupgrass, Woolly plant response rating” value (woolly cupgrass; [7]) was 100, the “Sunflower plant response rating” value [1, 4] was 50 and the “Sunflower plant response rating” value [1, 5] was 100. For the same molecule, the “Plant response rating, Sunflower” value [1, 6] was 0, the “Sunflower plant response rating” value [1, 7] was 100 and the “Corn plant response rating” value (corn; [4]) was 60. For the same molecule, the “Corn plant response rating” value (corn; [5]) was 95, the “Plant response rating, Corn” value (corn; [6]) was 60 and the “Corn plant response rating” value (corn; [7]) was 98. The “Kochia plant response rating” value (kochia; [4]) was 100, the “Kochia plant response rating” value (kochia; [5]) was 100 and the “Plant response rating, Kochia” value (kochia; [6]) was 100. For the same molecule, the “Kochia plant response rating” value (kochia; [7]) was 100, the “Ryegrass, Italian plant response rating” value (Italian ryegrass; [4]) was 70 and the “Ryegrass, Italian plant response rating” value (Italian ryegrass; [5]) was 100. For the same molecule, the “Plant response rating, Ryegrass, Italian” value (Italian ryegrass; [6]) was 0, the “Ryegrass, Italian plant response rating” value (Italian ryegrass; [7]) was 100 and the “Blackgrass plant response rating” value (blackgrass; [4]) was 100. For the same molecule, the “Blackgrass plant response rating” value (blackgrass; [5]) was 100, the “Plant response rating, Blackgrass” value (blackgrass; [6]) was 60 and the “Blackgrass plant response rating” value (blackgrass; [7]) was 100. The “Plant response rating, Barnyardgrass” value (barnyardgrass; Postemergence, 125 g ai/ha) was 60, the “Barnyardgrass plant response rating” value (barnyardgrass; [8]) was 80 and the “Barnyardgrass plant response rating” value (barnyardgrass; [9]) was 80. For the same molecule, the “Plant response rating, Barnyardgrass” value (barnyardgrass; Preemergence, 500 g ai/ha) was 100, the “Plant response rating, Sedge, Umbrella” value (umbrella sedge; 62 g ai/ha, scale 0 to 100 (0 no effect, 100 complete control)) was 50 and the “Plant response rating, Sedge, Umbrella” value (umbrella sedge; 250 g ai/ha, scale 0 to 100, 0 no effect, 100 complete control, 13 to 15 days) was 85. For the same molecule, the “Nutsedge, Yellow plant response rating” value (yellow nutsedge; [4]) was 50, the “Nutsedge, Yellow plant response rating” value (yellow nutsedge; [5]) was 70 and the “Plant response rating, Nutsedge, Yellow” value (yellow nutsedge; [6]) was 0. The “Nutsedge, Yellow plant response rating” value (yellow nutsedge; [7]) was 100, the “Pigweed plant response rating” value (pigweed; [4]) was 100 and the “Pigweed plant response rating” value (pigweed; [5]) was 100. For the same molecule, the “Plant response rating, Pigweed” value (pigweed; [6]) was 100, the “Pigweed plant response rating” value (pigweed; [7]) was 100 and the “Soybean plant response rating” value (soybean; [4]) was 98. For the same molecule, the “Soybean plant response rating” value (soybean; [5]) was 100, the “Plant response rating, Soybean” value (soybean; [6]) was 0 and the “Morningglory plant response rating” value (morningglory [2]; [4]) was 100. For the same molecule, the “Morningglory plant response rating” value (morningglory [2]; [5]) was 100, the “Plant response rating, Morningglory” value (morningglory [2]; [6]) was 30 and the “Morningglory plant response rating” value (morningglory [2]; [7]) was 100. The “Wheat plant response rating” value (wheat; [4]) was 30, the “Wheat plant response rating” value (wheat; [5]) was 60 and the “Plant response rating, Wheat” value (wheat; [6]) was 0. For the same molecule, the “Wheat plant response rating” value (wheat; [7]) was 95, the “Cocklebur plant response rating” value (cocklebur; [4]) was 0 and the “Cocklebur plant response rating” value (cocklebur; [5]) was 0. The “Plant response rating, Cocklebur” value (cocklebur; [6]) was 0, the “Cocklebur plant response rating” value (cocklebur; [7]) was 10 and the “Plant response rating, Morningglory” value (morningglory [3]; Postemergence, 125 g ai/ha) was 40. For the same molecule, the “Morningglory plant response rating” value (morningglory [3]; [8]) was 90, the “Morningglory plant response rating” value (morningglory [3]; [9]) was 40 and the “Plant response rating, Morningglory” value (morningglory [3]; Preemergence, 500 g ai/ha) was 90. The “Foxtail, Green plant response rating” value (green foxtail; [4]) was 98, the “Foxtail, Green plant response rating” value (green foxtail; [5]) was 98 and the “Plant response rating, Foxtail, Green” value (green foxtail; [6]) was 80. The “Foxtail, Green plant response rating” value (green foxtail; [7]) was 100, the “Crabgrass, Large plant response rating” value (crabgrass; [4]) was 85 and the “Crabgrass, Large plant response rating” value (crabgrass; [5]) was 100. For the same molecule, the “Plant response rating, Crabgrass, Large” value (crabgrass; [6]) was 40 and the “Crabgrass, Large plant response rating” value (crabgrass; [7]) was 100.
